Source: ChEMBL document CHEMBL4483862, “Open-source discovery of chemical leads for next-generation chemoprotective antimalarials” (2018)

Test system: Plasmodium berghei
Assay: Luciferase/luciferin-expressing antifolate-resistant parasites were used to infect a culture of HepG2 cells that were pre-incubated with compounds. Infected hepatocytes emit light due to the luciferase reaction. Assay results are presented as the percent inhibition of light emission compared to control. […]
Assay type: functional
Conditions: sporozoite; for IC90: read-out: LUCIFERASE INFECTION ASSAY - IC90
[1] = read-out: LUCIFERASE INFECTION ASSAY - IC50

`COc1ccc(C(N)c2csc(NC(=O)c3cc(C(C)(C)C)nn3Cc3ccccc3)n2)cc1` (configuration not stated) gave an IC50 (HEPG2TOX_HILL_SLOPE 0.0688, HEPG2TOX_R_SQUARED 0.351, PBLUC_HILL_SLOPE 6.29, PBLUC_R_SQUARED 0.765, read-out: LUCIFERASE INFECTION ASSAY - IC50) of 3.43 µM and an IC90 of 4.86 µM.
Molecule `Cc1[nH]c2c(F)cc(F)cc2c(=O)c1I` has an IC50 (PBLUC_HILL_SLOPE 4.58, PBLUC_R_SQUARED 0.0894, read-out: LUCIFERASE INFECTION ASSAY - IC50) of 5.86 µM and an IC90 of 9.47 µM.
`c1ccc(-c2cc(NCc3cccs3)nc3ccccc23)cc1` showed an IC50 [1] of over 10 µM and an IC90 of over 10 µM.
In the case of `Cc1ccc2cc(COC(=O)/C(=C/c3ccccc3)n3nnnc3C)c(Cl)nc2c1`, the IC50 (FFLUC_HILL_SLOPE 11.2, FFLUC_R_SQUARED 0.126, read-out: LUCIFERASE INFECTION ASSAY - IC50) is reported as over 10 µM and the IC90 is reported as over 10 µM.
Work on `CCOC(=O)CN1N=C(/C=C/c2ccc(C(C)C)cc2)CCC1=O` yielded an IC50 (HEPG2TOX_HILL_SLOPE 1.7, HEPG2TOX_R_SQUARED 0.981, read-out: LUCIFERASE INFECTION ASSAY - IC50) of over 10 µM and an IC90 of over 10 µM.
`CCOc1cc(C(=O)N2CCOCC2)ccc1OCc1cccnc1` was tested, and the IC50 [1] was over 10 µM and the IC90 was over 10 µM.
With `O=C1NC(=S)S/C1=C\c1ccc(OCc2ccc(Cl)c(Cl)c2)cc1` the IC50 (HEPG2TOX_HILL_SLOPE 0.0732, HEPG2TOX_R_SQUARED 0.0803, read-out: LUCIFERASE INFECTION ASSAY - IC50) was over 8.33 µM and the IC90 was over 8.33 µM.
In the case of `CNc1snc(C)c1C(=O)OCc1cc(Cl)ccc1OC`, the IC50 (FFLUC_HILL_SLOPE 8.97, FFLUC_R_SQUARED 0.0554, PBLUC_HILL_SLOPE 11, PBLUC_R_SQUARED 0.441, read-out: LUCIFERASE INFECTION ASSAY - IC50) is reported as 3.41 µM and the IC90 is reported as 4.16 µM.
In the case of `C(=N\Nc1ncnc2sc3c(c12)CCCC3)/c1c(-c2ccccc2)n(-c2ccccc2)c2ccccc12`, the IC50 [1] is reported as over 10 µM and the IC90 is reported as over 10 µM.
For `CCCn1c(SCC(=O)N(C)C(C)c2nc3ccccc3s2)nc2sc3c(c2c1=O)CCC3` (configuration not stated), the IC50 (HEPG2TOX_HILL_SLOPE 1.5, HEPG2TOX_R_SQUARED 0.705, PBLUC_HILL_SLOPE 172, PBLUC_R_SQUARED 0.534, read-out: LUCIFERASE INFECTION ASSAY - IC50) was 3.33 µM and the IC90 was 3.37 µM.
Molecule `Cc1csc2nc(CNC(c3ccc(C4CCCCC4)cc3)C(C)C)cc(=O)n12` (configuration not stated) has an IC50 (PBLUC_HILL_SLOPE 9.21, PBLUC_R_SQUARED 0.523, read-out: LUCIFERASE INFECTION ASSAY - IC50) of 3.73 µM and an IC90 of 4.73 µM.
`Cc1cc(C)n(-c2ccc(NC(=O)C3(c4ccccc4)CC3)cn2)n1` showed an IC50 (PBLUC_HILL_SLOPE 3.93, PBLUC_R_SQUARED 0.515, read-out: LUCIFERASE INFECTION ASSAY - IC50) of 0.477 µM and an IC90 of 0.834 µM.
For `CC[n+]1c(/C=C/c2ccc(SC)cc2)ccc2ccccc21`, the IC50 (PBLUC_HILL_SLOPE 11.6, PBLUC_R_SQUARED 0.0577, read-out: LUCIFERASE INFECTION ASSAY - IC50) was over 7.62 µM and the IC90 was over 7.62 µM.
Work on `O=C(COc1ccc2[nH]c3ccccc3c(=O)c2c1)N1c2ccccc2OCC1c1ccccc1` (configuration not stated) yielded an IC50 (FFLUC_HILL_SLOPE 10.4, FFLUC_R_SQUARED 0.204, PBLUC_HILL_SLOPE 2.2, PBLUC_R_SQUARED 0.922, read-out: LUCIFERASE INFECTION ASSAY - IC50) of 0.0152 µM and an IC90 of 0.0412 µM.
Work on `FC(F)(F)Oc1cccc(-c2nc3ccnc(NCc4ccccn4)c3[nH]2)c1` yielded an IC50 (HEPG2TOX_HILL_SLOPE 0.276, HEPG2TOX_R_SQUARED 0.811, PBLUC_HILL_SLOPE 0.809, PBLUC_R_SQUARED 0.487, read-out: LUCIFERASE INFECTION ASSAY - IC50) of 2.04 µM and an IC90 of over 10 µM.
With `CC(C1CC2CCC1C2)N1C(=O)C(=O)N(CC(=O)Nc2cccc(F)c2)C1=O` (configuration not stated) the IC50 (PBLUC_HILL_SLOPE 16.7, 2.98, PBLUC_R_SQUARED 0.617, 0.740, read-out: LUCIFERASE INFECTION ASSAY - IC50) was 4.13 µM and the IC90 was 3.86 µM.
`Cc1nc2ccc(N/N=C3\C=CC(=O)c4ncccc43)cc2s1` showed an IC50 (HEPG2TOX_HILL_SLOPE 2.99, HEPG2TOX_R_SQUARED 0.974, PBLUC_HILL_SLOPE 13.8, PBLUC_R_SQUARED 0.408, read-out: LUCIFERASE INFECTION ASSAY - IC50) of 3.46 µM and an IC90 of 4.05 µM.
In the case of `COc1cc(OC)c(OC)cc1CNC(=O)c1ccc2[nH]c3c(c2c1)CCCC3`, the IC50 (PBLUC_HILL_SLOPE 2.72, PBLUC_R_SQUARED 0.276, read-out: LUCIFERASE INFECTION ASSAY - IC50) is reported as 9.2 µM and the IC90 is reported as over 10 µM.
With `CCOC(=O)c1c(NC(=O)CN(CC(C)C)C2CC2)sc(C(=O)Nc2ccc(C)cc2C)c1C` the IC50 [1] was 4.24 µM and the IC90 was 5.26 µM.
`CC(C)(C)c1cc(C(=O)Nc2ccc(Br)c(Cl)c2)n(Cc2ccccc2)n1` showed an IC50 (FFLUC_HILL_SLOPE 13.4, FFLUC_R_SQUARED 0.471, HEPG2TOX_HILL_SLOPE 9.89, HEPG2TOX_R_SQUARED 0.67, PBLUC_HILL_SLOPE 12.6, PBLUC_R_SQUARED 0.293, read-out: LUCIFERASE INFECTION ASSAY - IC50) of over 7.39 µM and an IC90 of over 7.39 µM.
`CC(C)=CC(=O)NC(c1ccccc1)c1ccc(Cl)cc1` (configuration not stated) showed an IC50 [1] of over 10 µM and an IC90 of over 10 µM.
Work on `Cc1ccccc1-c1cn2c(-c3ccc(O)cc3)cnc2cn1` yielded an IC50 (FFLUC_HILL_SLOPE 9.55, FFLUC_R_SQUARED 0.182, HEPG2TOX_HILL_SLOPE 2.1, HEPG2TOX_R_SQUARED 0.88, PBLUC_HILL_SLOPE 16, PBLUC_R_SQUARED 0.259, read-out: LUCIFERASE INFECTION ASSAY - IC50) of 3.41 µM and an IC90 of 3.92 µM.
For `Oc1ccc2ccccc2c1/C=N/Nc1nnc(-c2ncc[nH]2)c2ccccc12`, the IC50 (HEPG2TOX_HILL_SLOPE 2.06, HEPG2TOX_R_SQUARED 0.877, PBLUC_HILL_SLOPE 10.4, PBLUC_R_SQUARED 0.915, read-out: LUCIFERASE INFECTION ASSAY - IC50) was 3.76 µM and the IC90 was 4.64 µM.
In the case of `CC(=O)O/N=C1/CCn2c1c(C)c1ccccc12`, the IC50 (HEPG2TOX_HILL_SLOPE 1.28, HEPG2TOX_R_SQUARED 0.99, PBLUC_HILL_SLOPE 11.8, PBLUC_R_SQUARED 0.596, read-out: LUCIFERASE INFECTION ASSAY - IC50) is reported as 4.77 µM and the IC90 is reported as 5.74 µM.
Molecule `COc1ccc(N2C(=O)c3ccccc3C(C=NNC(=O)c3sc4ccccc4c3Cl)C2=O)cc1OC` (configuration not stated) has an IC50 (PBLUC_HILL_SLOPE 1.6, PBLUC_R_SQUARED 0.564, read-out: LUCIFERASE INFECTION ASSAY - IC50) of 3.85 µM and an IC90 of over 10 µM.
Molecule `COc1cc(C(=O)Nc2ccc(-c3cn4ccsc4n3)cc2)ccc1OCC(=O)N1CCOCC1` has an IC50 [1] of over 10 µM and an IC90 of over 10 µM.
With `Cc1ccc(CSc2nnc(-c3ccccc3N)c(O)n2)cc1` the IC50 [1] was over 10.2 µM and the IC90 was over 10.2 µM.
For `Cc1ccc2nc(NC(=O)c3ccc(Cl)cc3)c(C(=O)NC3CCCCC3)n2c1`, the IC50 (PBLUC_HILL_SLOPE 3.64, PBLUC_R_SQUARED 0.503, read-out: LUCIFERASE INFECTION ASSAY - IC50) was 3.51 µM and the IC90 was 6.42 µM.
`Cc1cccc(C)c1NC(=O)N1[C@@H]2CC[C@@H](C2)[C@H]1c1nc2cccc(OCc3ccc(F)cc3)c2[nH]1` was tested, and the IC50 (PBLUC_HILL_SLOPE 4.64, PBLUC_R_SQUARED 0.011, read-out: LUCIFERASE INFECTION ASSAY - IC50) was over 10 µM and the IC90 was over 10 µM.
`O=C(CSc1cccc[n+]1[O-])Nc1ccccc1OC(F)F` gave an IC50 [1] of over 10 µM and an IC90 of over 10 µM.
`N#CCC(=O)NN1Cc2ccccc2C1=N` gave an IC50 [1] of over 10 µM and an IC90 of over 10 µM.
`CC1CCc2sc(C(=O)OCC(=O)NCCN3C(=O)CSC3=S)cc2C1` (configuration not stated) was tested, and the IC50 [1] was over 10 µM and the IC90 was over 10 µM.
Work on `CC(=O)Nc1ccc(-c2cnc3ccc(-c4ccc(F)c(Cl)c4)nn23)cc1` yielded an IC50 (FFLUC_HILL_SLOPE 64.9, FFLUC_R_SQUARED 0.6, HEPG2TOX_HILL_SLOPE 8.77, HEPG2TOX_R_SQUARED 0.612, PBLUC_HILL_SLOPE 16.7, PBLUC_R_SQUARED 0.645, read-out: LUCIFERASE INFECTION ASSAY - IC50) of 3.09 µM and an IC90 of 3.52 µM.
`CCC(=O)/C(=N/Nc1ccccc1)C(=O)OC` was tested, and the IC50 [1] was over 14.1 µM and the IC90 was over 14.1 µM.
`Cc1c(S(=O)(=O)c2ccc(Cl)cc2)csc1C(=O)Nc1ccccc1Cl` gave an IC50 (FFLUC_HILL_SLOPE 0.988, FFLUC_R_SQUARED 0.0286, PBLUC_HILL_SLOPE 1.65, PBLUC_R_SQUARED 0.324, read-out: LUCIFERASE INFECTION ASSAY - IC50) of 6.99 µM and an IC90 of over 7.74 µM.
Molecule `O=S(=O)(Nc1ccc(Cl)cc1)c1ccc2nc(-c3ccccn3)[nH]c2c1` has an IC50 (HEPG2TOX_HILL_SLOPE 9.44, HEPG2TOX_R_SQUARED 0.935, PBLUC_HILL_SLOPE 6.04, PBLUC_R_SQUARED 0.808, read-out: LUCIFERASE INFECTION ASSAY - IC50) of 5.77 µM and an IC90 of 8.29 µM.
With `c1ccc(CSc2ncc(-c3nnnn3-c3ccccc3)c(-c3ccccc3)n2)cc1` the IC50 (FFLUC_HILL_SLOPE 10.9, FFLUC_R_SQUARED 0.438, read-out: LUCIFERASE INFECTION ASSAY - IC50) was over 7.81 µM and the IC90 was over 7.81 µM.
With `CSc1sc(C(=O)Nc2cc(C(F)(F)F)cc(C(F)(F)F)c2)c(-c2ccc(Cl)cc2)c1C#N` the IC50 [1] was 0.839 µM and the IC90 was 2.43 µM.
Molecule `Cn1c2c(cc(-c3ccccc3)c1=O)CN(Cc1cnn(-c3ccc(F)cc3)c1)CC2` has an IC50 (HEPG2TOX_HILL_SLOPE 7.96, HEPG2TOX_R_SQUARED 0.425, PBLUC_HILL_SLOPE 14.6, PBLUC_R_SQUARED 0.0729, read-out: LUCIFERASE INFECTION ASSAY - IC50) of 7.11 µM and an IC90 of over 7.96 µM.
`Cc1ccc(CN(C)C(=O)CSc2nnc(-c3ccc(C(C)(C)C)cc3)o2)c(C)c1` gave an IC50 [1] of over 10 µM and an IC90 of over 10 µM.
With `COc1ccc2cc(C(C)C(=O)N/N=C/c3ccccc3O)ccc2c1` (configuration not stated) the IC50 (HEPG2TOX_HILL_SLOPE 3.47, HEPG2TOX_R_SQUARED 0.909, PBLUC_HILL_SLOPE 4.89, PBLUC_R_SQUARED 0.506, read-out: LUCIFERASE INFECTION ASSAY - IC50) was 6.69 µM and the IC90 was over 9.47 µM.
